PubChem BioAssay (NCI)
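Method: 48-hour compound exposure of cells in 96-well plates, five concentrations, linear interpolation of endpoints. GI50 is the concentration that inhibits growth by half. Definition used: TGI = concentration required for complete inhibition of growth.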

How the values were obtained:
Assay in all cases: NCI anticancer screen, dose series, 48 h
BT-549 breast = system: BT-549 breast
HCC-2998 colon = system: HCC-2998 colon
NCI-H226 lung = system: NCI-H226 lung
OVCAR-5 ovarian = system: OVCAR-5 ovarian
PC-3 prostate = system: PC-3 prostate
SNB-19 CNS = system: SNB-19 CNS
SR leukemia = system: SR leukemia
SW-620 colon = system: SW-620 colon
UO-31 renal = system: UO-31 renal
HL-60(TB) leukemia = system: HL-60(TB) leukemia

SMILES | TGI (BT-549 breast) [µM] | TGI (HCC-2998 colon) [µM] | TGI (NCI-H226 lung) [µM] | TGI (OVCAR-5 ovarian) [µM] | TGI (PC-3 prostate) [µM] | TGI (SNB-19 CNS) [µM] | TGI (SR leukemia) [µM] | TGI (SW-620 colon) [µM] | TGI (UO-31 renal) [µM] | TGI (HL-60(TB) leukemia) [µM] | GI50 (BT-549 breast) [µM] | GI50 (HCC-2998 colon) [µM] | GI50 (HL-60(TB) leukemia) [µM] | GI50 (NCI-H226 lung) [µM] | GI50 (OVCAR-5 ovarian) [µM] | GI50 (PC-3 prostate) [µM] | GI50 (UO-31 renal) [µM]
CC(=O)N(O)[C@@H]1CC[C@H](n2cnc3c(N)ncnc32)C1 | > 100 | > 100 | > 100 | > 100 | > 100 | > 100 | > 100 | > 100 | > 100 |  |  |  |  |  |  |  | 
COC(=O)/C=C/c1ccc2c(c1)CC1(C2)Cc2cc3c(cc2C1=O)CCC3 (configuration not stated) | > 100 | > 100 | > 100 |  | > 100 | > 100 | > 100 | > 100 | > 100 | > 100 |  |  |  |  |  |  | 
CN(C)c1ccccc1CN1CCCN(Cc2ccccc2N(C)C)C1c1ccncc1 | 34.6 |  | 38.7 | 40.9 | > 100 | 33 | 21.7 | 42.2 | 13.9 | 32.4 |  |  |  |  |  |  | 
COC(=O)C1=C(O)C(C(=O)OC)[C@]2(O)[C@H](C(=O)OC)[C@H]1C[C@@H](c1c(Cl)cccc1Cl)[C@H]2C(=O)OC (some centres not stated) | 6.99 | 3.03 | 4.87 |  | 10.5 | 5.13 | 4.87 | 11 | 3.01 | 18.7 |  |  |  |  |  |  | 
CCCCCCCCCCCCCC[n+]1ccc2c(C)c3c(c(C)c2c1)c1cc(O)ccc1n3CC | 1.46 | 1.81 | 1.96 | 1.85 | 1.33 |  |  |  | 4.57 | 1.95 | 0.339 | 0.435 | 0.378 | 0.418 | 0.497 | 0.356 | 1.39
CCOC(=O)C1OC(C2(C)OC3(OC4(C=CC3O)OC(C(C)C(=O)C(C)C(O)C(C)CC(C)c3c(Cl)cc(C)c(O)c3C(=O)O)C(C)CC4C)C(C)C2OC)CC1O (configuration not stated) | 17.2 | 0.264 | 1.84 | 21 | 17.3 |  | 4.53 | 10.5 | 3.95 | 4.66 |  |  |  |  |  |  | 
CN1CCC(CN2c3ccccc3Sc3ccccc32)CC1 |  | 25.6 | 28.8 | 33.5 |  | 29.3 | 33.3 | 28.6 | 21.8 | 32.8 |  |  |  |  |  |  | 
CSCCCNC(=O)c1csc(-c2csc(C(CNC(=O)OC(C)(C)C)CNC(=O)OC(C)(C)C)n2)n1 | > 100 |  | > 100 | > 100 | > 100 | > 100 | 70.1 | > 100 | > 100 |  |  |  |  |  |  |  | 
Cc1ccc(O)c(-c2cc(-c3cccc(Cl)c3)c(C#N)c(N)n2)c1 | > 100 |  | 55.4 | 70.4 | 83.4 |  | 30.3 | 40.8 | 52.8 | 68.6 |  |  |  |  |  |  | 
COc1cc(C2C(C(=O)O)=C(COC(C)=O)Oc3cc4c(cc32)OCO4)cc(OC)c1OC (configuration not stated) |  |  |  | > 100 |  | > 100 |  | > 100 | > 100 | > 100 |  |  |  |  |  |  | 
CC1(CCCO)CCCCCCCCCC(C)(CCCO)C1=O (configuration not stated) | > 100 | > 100 | > 100 | > 100 | > 100 | > 100 |  | > 100 | > 100 | > 100 |  |  |  |  |  |  | 
CCOc1ccc(/C=N/[N+](C)(C)C)cc1OCC | > 10 | > 10 |  | > 10 | > 10 | > 10 | > 10 | > 10 |  |  |  |  |  |  |  |  | 
CSc1c(C#N)c(N)nc2c(N=Nc3ccc(Cl)cc3)c(N)nn12 | 9.97 | 14.8 | 37.9 | 39.6 | 7.38 | 40.7 |  | 4.49 | 4.42 | 5.23 |  |  |  |  |  |  | 
C/C(=C/C(=O)Nn1c(Cc2ccccc2)n[nH]c1=O)C(=O)O | > 100 | > 100 | > 100 | > 100 | > 100 | > 100 |  | > 100 | > 100 | > 100 |  |  |  |  |  |  | 
N=c1c2c(-c3ccccc3)c[nH]c2ncn1N | > 100 | > 100 | > 100 | > 100 | > 100 | > 100 |  | > 100 | > 100 | > 100 |  |  |  |  |  |  | 
CCSc1cc(=O)n(C)c(=O)n1C | > 100 | > 100 | > 100 | > 100 | > 100 | > 100 |  | > 100 | > 100 | > 100 |  |  |  |  |  |  | 
Nc1nc(N)c2ncn(Cc3ccccc3CCl)c2n1 | > 100 |  | > 100 | > 100 | > 100 | > 100 | > 100 | > 100 | > 100 | > 100 |  |  |  |  |  |  | 
CN(C)c1ccc(C(Cc2ccc3ccccc3n2)Cc2ccc3ccccc3n2)cc1 |  |  | > 100 |  |  |  |  |  | > 100 |  |  |  |  | 4.4 |  |  | 1.96
Fc1ccc2nc3n(c2c1)C(c1c(Cl)cccc1Cl)SC3 (configuration not stated) | > 100 | > 100 | > 100 | > 100 | > 100 | > 100 | > 100 | > 100 | > 100 |  |  |  |  |  |  |  | 
O=C1CCC(=O)N1n1c(Cc2ccc(Cl)cc2)n[nH]c1=O | > 100 | > 100 | > 100 | > 100 | > 100 | > 100 |  | > 100 | > 100 | > 100 |  |  |  |  |  |  | 
CC(C)(C)c1cc(C2=NN(c3ccccc3)C(c3ccccc3)C2)cc(C(C)(C)C)c1O (configuration not stated) | > 100 |  | > 100 | > 100 | > 100 | > 100 | > 100 | > 100 | > 100 | > 100 |  |  |  |  |  |  | 
CN(C)c1nncc2[nH]cnc12 | > 100 |  | > 100 | > 100 | > 100 | > 100 | > 100 | > 100 | > 100 | > 100 |  |  |  |  |  |  | 
N#CCCN(CCC#N)c1ccc(/C=C2\N=C(c3ccccc3)N(NC(N)=S)C2=O)cc1 | > 100 |  | > 100 | > 100 | > 100 | > 100 |  | > 100 | > 100 | > 100 |  |  |  |  |  |  | 
